This passage reports IC50 results from patent publication US20230099031A1, “BIFUNCTIONAL AGENTS FOR PROTEIN RECRUITMENT AND/OR DEGRADATION” (Orionis Biosciences, Inc., priority 2019, published 2023).

For the assay, the target named is T1, CRBN (Homo sapiens, UniProt Q96SW2).
T1 construct: expressed in transfected cells; host or cells: HEK293T
Briefly: Competition Assay: MAPPIT-like, competition with trimethoprim-lenalidomide hybrid ligand for binding to CRBN in HEK293T cells. Type of assay: cell-based. The note with it: protocol and reagents of Example 1; read-out: IC50 Competition. The text has this:
A bait protein (protein A) is expressed as a fusion protein in which it is genetically fused to an engineered intracellular receptor domain of the leptin receptor, which is itself fused to the extracellular domain of the erythropoietin (Epo) receptor. Binding of Epo ligand to the EpoR component results in activation of receptor-associated intracellular JAK2. However, activated JAK2 cannot activate the leptin receptor to trigger STAT3 binding and its phosphorylation because its tyrosine residues, normally phosphorylated by activated JAK2, have been mutated. Reconstitution of a JAK2 phosphorylatable STAT3 docking site is instead created through interaction of a protein B with protein A, whereby protein B is fused to a cytoplasmic domain of the gp130 receptor (which now harbors appropriate tyrosine resides recognized by the activated JAK2 kinase). Thus, physical interaction of protein A with protein B reconstitutes and Epo triggers JAK2-STAT3 signaling pathway activation. Activation of STAT3 can be monitored by introduction of a STAT3-responsive reporter gene, including a luciferase-encoding gene or a gene encoding a fluorescent marker such as GFP or some other type of fluorescent protein (EGF etc.). In this manner, the MAPPIT assay provides a versatile assay to assess such recombinant protein-protein interactions, or compound- or hybrid ligand-induced protein-protein interactions, in intact cells.
Formation of the complex results in activation of a STAT-responsive luciferase reporter gene. That signal is set to 100% luciferase activity. In a separate sample set up, cells are prepared in the same manner but, in addition, co-incubated with a test compound whose interaction with CRBN is investigated. […] Increasing concentrations of test compound are assessed to determine CRBN binding efficiency as determined in this type of ligand competition experiment in living cells. Specificity of signal inhibition is assessed by a parallel experimental set up in which test compound effect is assessed for inhibition of signal generated by a control gp130 fusion protein (CTRL) that directly binds to the DHFR-fusion protein in the absence of hybrid ligand (i.e. a direct interaction of the proteins).
In more detail, HEK293T cells are cultured in Dulbecco's modified Eagle's medium supplemented with 10% fetal calf serum, incubated at 37° C., 8% CO2. […] Data points represent the average luciferase activity of triplicate samples derived from cells treated with leptin+test compound for the REM2 control (CTRL) or cells treated with leptin+hybrid ligand+test compound (CRBN) relative to leptin (CTRL) or leptin+hybrid ligand (CRBN) only treated samples (the signals obtained in absence of added test compound for both cases is set at 100% of luciferase activity on y-axis). Error bars represent standard deviations. Curves are fit using 4-parameter nonlinear regression in […] PRISM software
As usually defined, the IC50 is the concentration that inhibits the measured activity by half. As for `CC1CCCCN1C(=O)CNc1ccc2c(c1)C(=O)N(C1CCC(=O)NC1=O)C2` (centres unmarked) [Compound C12584, 3-[6-[[2-(2-methyl-1-piperidyl)-2-oxo-ethyl]amino]-1-oxo-isoindolin-2-yl]piperidine-2,6-dione], the IC50 was 7.91e-05 µM. The same measure for `CC1CN(C(=O)CNc2ccc3c(c2)C(=O)N(C2CCC(=O)NC2=O)C3)CCO1` (centres unmarked) [Compound C12586, 3-[6-[[2-(2-methylmorpholin-4-yl)-2-oxo-ethyl]amino]-1-oxo-isoindolin-2-yl]piperidine-2,6-dione]: 0.383 µM; for `O=C1CCC(N2Cc3ccc(NCC(=O)N4CC5CC4CO5)cc3C2=O)C(=O)N1` (centres unmarked) [Compound C12589]: 10.3 µM. Next, `CC1CN(C)CCN1C(=O)CNc1ccc2c(c1)C(=O)N(C1CCC(=O)NC1=O)C2` (centres unmarked) [Compound C12595, 3-[6-[[2-(2,4-dimethylpiperazin-1-yl)-2-oxo-ethyl]amino]-1-oxo-isoindolin-2-yl]piperidine-2,6-dione]: 0.208 µM; `CN1CCN(C(=O)CNc2ccc3c(c2)C(=O)N(C2CCC(=O)NC2=O)C3)CC1=O` (centres unmarked) [Compound C12597, 3-[6-[[2-(4-methyl-3-oxo-piperazin-1-yl)-2-oxo-ethyl]amino]-1-oxo-isoindolin-2-yl]piperidine-2,6-dione]: 5.5 µM; `CC1CN(C(=O)CNc2ccc3c(c2)C(=O)N(C2CCC(=O)NC2=O)C3)CC(=O)N1` (centres unmarked) [Compound C12598, 3-[6-[[2-(3-methyl-5-oxo-piperazin-1-yl)-2-oxo-ethyl]amino]-1-oxo-isoindolin-2-yl]piperidine-2,6-dione]: 4.88 µM.

On to `CC1CC(NC(=O)CNc2ccc3c(c2)C(=O)N(C2CCC(=O)NC2=O)C3)CCO1` (centres unmarked) [Compound C12695, 2-[[2-(2,6-dioxo-3-piperidyl)-3-oxo-isoindolin-5-yl]amino]-N-(2-methyltetrahydropyran-4-yl)acetamide], for which the IC50 came out at 58 µM. Next, `O=C1Cc2ccccc2C(=O)N1` [Compound C15352, 4H-isoquinoline-1,3-dione]: 10.3 µM; `O=C1c2ccccc2CC1n1ccc(=O)[nH]c1=O` (centres unmarked) [Compound C16899, 1-(1-oxoindan-2-yl)pyrimidine-2,4-dione]: 10.4 µM; `O=C1CCC(CN2C(=O)c3ccccc3C2=O)C(=O)N1` (centres unmarked) [Compound C23258, 2-[(2,6-dioxo-3-piperidyl)methyl]isoindoline-1,3-dione]: 14500 µM. Next, `O=C1CCC(N2C(=O)C3CCCCC3C2=O)C(=O)N1` (centres unmarked) [Compound C24191, 2-(2,6-dioxo-3-piperidyl)-3a,4,5,6,7,7a-hexahydroisoindole-1,3-dione]: 17.7 µM; `Cc1cccc2c1C(=O)N(C1CCC(=O)NC1=O)C2` (centres unmarked) [Compound C28661, 3-(7-methyl-1-oxo-isoindolin-2-yl)piperidine-2,6-dione]: 0.654 µM. The same measure for `COc1cccc2c1C(=O)N(C1CCC(=O)NC1=O)C2` (centres unmarked) [Compound C29137, 3-(7-methoxy-1-oxo-isoindolin-2-yl)piperidine-2,6-dione]: 0.304 µM. For `CC(=O)Nc1ccc2c(c1)C(=O)N(C1CCC(=O)NC1=O)C2` (centres unmarked) [Compound C29408, N-[2-(2,6-dioxo-3-piperidyl)-3-oxo-isoindolin-5-yl]acetamide], the IC50 amounted to 4.92 µM.

Regarding `CC(=O)Nc1cccc2c1C(=O)N(C1CCC(=O)NC1=O)C2` (centres unmarked) [Compound C29457, N-[2-(2,6-dioxo-3-piperidyl)-3-oxo-isoindolin-4-yl]acetamide], the IC50 was found to be 10.4 µM.

As for `NC(=O)Nc1cccc2c1CN(C1CCC(=O)NC1=O)C2=O` (centres unmarked) [Compound C29490, [2-(2,6-dioxo-3-piperidyl)-1-oxo-isoindolin-4-yl]urea], the IC50 was determined as 8.86 µM. Regarding `O=C1c2c(F)c(F)c(F)c(F)c2C(=O)N1c1ccc(F)cc1F` [Compound C34491, 2-(2,4-difluorophenyl)-4,5,6,7-tetrafluoro-isoindoline-1,3-dione], the half-inhibitory concentration (IC50) is 16.1 µM. Next, `Nc1cccc2c(=O)n(C3CCC(=O)NC3=O)nnc12` (centres unmarked) [Compound C35833, 3-(8-amino-4-oxo-1,2,3-benzotriazin-3-yl)piperidine-2,6-dione]: 0.684 µM; `O=C1CCc2cc(C(=O)N3CCc4cccnc43)cnc2N1` [Compound C36128, 6-(2,3-dihydropyrrolo[2,3-b]pyridine-1-carbonyl)-3,4-dihydro-1H-1,8-naphthyridin-2-obe]: 20.3 µM; `NC(=O)c1ccc2c(c1)C(=O)N(C1CCC(=O)NC1=O)C2` (centres unmarked) [Compound C39772, 2-(2,6-dioxo-3-piperidyl)-3-oxo-isoindoline-5-carboxamide]: 13.8 µM.

`O=C1CCC(Nc2cnc3ccccc3n2)C(=O)N1` (centres unmarked) [Compound C44292, 3-(quinoxalin-2-ylamino)piperidine-2,6-dione]: the IC50 turned out to be 8.32 µM. The same measure for `O=C1CCC(N2Cc3ccc(C(F)(F)F)cc3C2=O)C(=O)N1` (centres unmarked) [Compound C45748, 3-[1-oxo-6-(trifluoromethyl)isoindolin-2-yl]piperidine-2,6-dione]: 0.953 µM. As to `Nc1cccc2c1CCN(C1CCC(=O)NC1=O)C2=O` (centres unmarked) [Compound C47933, 3-(5-amino-1-oxo-3,4-dihydroisoquinolin-2-yl)piperidine-2,6-dione], the 50% inhibitory concentration (IC50) came to 1.09 µM.

On to `O=C(O)CNc1ccc2c(c1)C(=O)N(C1CCC(=O)NC1=O)C2` (centres unmarked) [Compound C47997, 2-[[2-(2,6-dioxo-3-piperidyl)-3-oxo-isoindolin-5-yl]amino]acetic acid], for which the concentration for half-maximal inhibition (IC50) is 9.1 µM. Next, `N#Cc1cccc2c1C(=O)N(C1CCC(=O)NC1=O)C2` (centres unmarked) [Compound C48009, 2-(2,6-dioxo-3-piperidyl)-3-oxo-isoindoline-4-carbonitrile]: 2.18 µM. Next, `O=C1CCC(N2Cc3cccc(-c4ccccc4)c3C2=O)C(=O)N1` (centres unmarked) [Compound C48020, 3-(1-oxo-7-phenyl-isoindolin-2-yl)piperidine-2,6-dione]: 0.546 µM; `O=C1N=CC(N2C(=O)c3ccccc3C2=O)C(=O)N1` (centres unmarked) [Compound C49278, 2-(2,6-dioxo-5H-pyrimidin-5-yl)isoindoline-1,3-dione]: 45.4 µM.

Consider `CN(C)CC(=O)Nc1ccc2c(c1)C(=O)N(C1CCC(=O)NC1=O)C2` (centres unmarked) [Compound C49708, 2-(dimethylamino)-N-[2-(2,6-dioxo-3-piperidyl)-3-oxo-isoindolin-5-yl]acetamide], for which the half-maximal inhibitory concentration (IC50) is 0.752 µM. The same measure for `O=C1CCC(N2C(=O)c3ccccc3C2C2=c3ccccc3=NC2)C(=O)N1` (centres unmarked) [Compound C49713, 3-[1-(2H-indol-3-yl)-3-oxo-isoindolin-2-yl]piperidine-2,6-dione]: 6.74 µM. The same measure for `O=C1CCC(Nc2ncccn2)C(=O)N1` (centres unmarked) [Compound C55468, 3-(pyrimidin-2-ylamino)piperidine-2,6-dione]: 8.68 µM. The same measure for `COC1c2ccccc2C(=O)N1C1CCC(=O)NC1=O` (centres unmarked) [Compound C56572, 3-(1-methoxy-3-oxo-isoindolin-2-yl)piperidine-2,6-dione]: 8.61 µM; for `O=C1CCC(N2C(=O)C=C(c3ccccc3)C2=O)C(=O)N1` (centres unmarked) [Compound C64319, 3-(2,5-dioxo-3-phenyl-pyrrol-1-yl)piperidine-2,6-dione]: 42.9 µM; for `O=C1CCC(N2C(=O)CC3(Cc4ccccc4C3)C2=O)C(=O)N1` (centres unmarked) [Compound C64329, 1′-(2,6-dioxo-3-piperidyl)spiro[indane-2,3′-pyrrolidine]-2′,5′-dione]: 15.1 µM. With `O=C1CCC(N2C(=O)CC3(CCOCC3)C2=O)C(=O)N1` (centres unmarked) [Compound C64348, 2-(2,6-dioxo-3-piperidyl)-8-oxa-2-azaspiro[4.5]decane-1,3-dione], the IC50 came to 12.9 µM. Next, `Cc1nc(N(C)C)cc2c1C(=O)N(C1CCC(=O)NC1=O)C2=O` (centres unmarked) [Compound C64376, 6-(dimethylamino)-2-(2,6-dioxo-3-piperidyl)-4-methyl-pyrrolo[3,4-c]pyridine-1,3-dione]: 3.95 µM. The same measure for `NCc1ccc2c(c1)C(=O)N(C1CCC(=O)NC1=O)C2` (centres unmarked) [Compound C66979, 3-[6-(aminomethyl)-1-oxo-isoindolin-2-yl]piperidine-2,6-dione]: 0.633 µM. The same measure for `O=C1CC/C(=C/c2ccccc2)C(=O)N1` [Compound C68121, (3Z)-3-benzylidenepiperidine-2,6-dione]: 6.5 µM; for `Cc1cccc2c1C(=O)N(C1CCC(=O)NC1=O)S2(=O)=O` (centres unmarked) [Compound C73349, 3-(4-methyl-1,1,3-trioxo-1,2-benzothiazol-2-yl)piperidine-2,6-dione]: 4.95 µM.
